Experimental findings from BindingDB's records for doi:10.1074/jbc.271.44.27217 (Yamanouchi Pharmaceutical, 1996) are described below.

The test addresses T1, Neuropeptide Y receptor type 2 (Oryctolagus cuniculus, UniProt B6VRS5).
T1 sequence (B6VRS5 whole entry): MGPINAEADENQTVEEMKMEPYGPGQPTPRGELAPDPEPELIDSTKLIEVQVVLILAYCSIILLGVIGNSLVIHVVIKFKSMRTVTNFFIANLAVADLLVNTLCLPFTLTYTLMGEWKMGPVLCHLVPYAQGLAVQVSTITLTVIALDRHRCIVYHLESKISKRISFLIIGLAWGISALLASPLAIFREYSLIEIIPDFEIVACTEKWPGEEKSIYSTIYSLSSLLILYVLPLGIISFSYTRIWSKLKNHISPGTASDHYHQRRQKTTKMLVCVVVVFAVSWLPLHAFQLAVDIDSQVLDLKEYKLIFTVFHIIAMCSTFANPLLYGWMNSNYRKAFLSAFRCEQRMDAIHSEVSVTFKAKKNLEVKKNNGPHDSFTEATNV

In the case of `CC[C@H](C)[C@H](NC(=O)[C@H](Cc1ccc(O)cc1)NC(=O)[C@H](CCCNC(=N)N)NC(=O)[C@H](CCCNC(=N)N)NC(=O)[C@H](CC(C)C)NC(=O)[C@H](CC(=O)O)NC(=O)[C@H](C)NC(=O)[C@H](C)NC(=O)[C@H](Cc1ccc(O)cc1)NC(=O)[C@H](CCC(N)=O)NC(=O)[C@H](C)NC(=O)[C@H](CCSC)NC(=O)[C@H](CCC(N)=O)NC(=O)[C@H](CCC(=O)O)NC(=O)[C@@H]1CCCN1C(=O)[C@@H](NC(=O)[C@H](C)NC(=O)[C@H](CC(N)=O)NC(=O)[C@H](CC(=O)O)NC(=O)CNC(=O)[C@@H]1CCCN1C(=O)[C@H](Cc1ccc(O)cc1)NC(=O)[C@@H](NC(=O)[C@@H]1CCCN1C(=O)[C@H](CCC(=O)O)NC(=O)[C@H](CC(C)C)NC(=O)[C@@H]1CCCN1C(=O)[C@H](C)N)C(C)C)[C@@H](C)O)C(=O)N[C@@H](CC(N)=O)C(=O)N[C@@H](CCSC)C(=O)N[C@@H](CC(C)C)C(=O)N[C@H](C(=O)N[C@@H](CCCNC(=N)N)C(=O)N1CCC[C@H]1C(=O)N[C@@H](CCCNC(=N)N)C(=O)N[C@@H](Cc1ccc(O)cc1)C(N)=O)[C@@H](C)O` [CAS_59763-91-6], the Ki was 340 nM.

One may read the Ki as the dissociation constant of the complex between target and ligand, obtained from inhibition or displacement. Higher therefore signals lower affinity.
